Format in all cases: cell-based, human
Assay [1] relates to p-ERK in AGS cells (KRAS G12D mutation). Description: Cell p-ERK assay (HTRF, Advance ERK phospho-T202/Y204 kit). The conditions noted are these: AGS cells, 3 hours incubation with compound, HTRF, read-out: AGS p-ERK IC50. The procedure, abridged: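 Phospho-ERK (T202/Y204) measured by HTRF in lysates of human gastric AGS cells carrying KRAS G12D, after 3 h compound exposure at 0.1% DMSO over a 3.16-fold series. Percent inhibition relative to DMSO control and lysis-only blank; four-parameter curve fitting gave IC50.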
(In TR-FRET formats the signal depends on donor and acceptor labels being close together.)

The test system of a further assay is AGS cells (KRAS G12D). Description: Cell proliferation inhibition assay, 3D, CellTiter-Glo 3D, AGS. Particulars: AGS 3D sphere model, 5 days incubation. The procedure, abridged:
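Spheroids (800 AsPC-1 or 400 AGS cells/well; RPMI-1640 or F-12K with 10% FBS) formed overnight, then were dosed on day 2 with a 3.16-fold series at 0.1% DMSO. After 5 days, viability was read by CellTiter-Glo 3D luminescence, and IC50 came from four-parameter fits of inhibition versus DMSO control and medium blank.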
A general note: Cellular ATP, detected with luciferase, serves as a proxy for viable cell number.

The subject of assay [2] is AsPC-1 cells (KRAS G12D mutation). Description: Cell proliferation inhibition assay, 3D, CellTiter-Glo 3D, AsPC-1. The conditions noted are these: AsPC-1 3D sphere model, 5 days incubation. An excerpt:
AsPC-1 was purchased from ATCC; catalog No: CRL-1682; AGS was purchased from ATCC; catalog No: CRL-1739; RPMI1640 was purchased from Gibco; catalog No: 11875-093 2235123; F12K was purchased from Gibco; catalog No: 21127-022; FBS was purchased from Gibco; catalog No: 10099-141C; trypsin (containing EDTA) was purchased from Gibco; catalog No: 25200-072; CellTiter Glo-3D was purchased from Progema; catalog No: G9683; 384-well sphere plates were purchased from Corning; catalog No: 3830; white opaque 384-well plates were purchased from Corning; catalog No: 3570; cell counters were purchased from CHEMOMETEC; model: NC-200; microplate reader was purchased from PerkinElmer; model: Envison;
AsPC-1 is an endogenous human pancreatic cancer cell containing KRAS^G12D mutation, cultured in RPMI-1640 medium containing 10% FBS; AGS is a human gastric cancer cell line containing KRAS^G12D, cultured in F-12K medium containing 10% FBS. Cells in the logarithmic growth phase were taken, digested with trypsin (containing EDTA), collected, and counted. 800 AsPC-1 cells/well or 400 AGS cells/well, respectively, were seeded in a 384-well sphere plate and cultured overnight at 5% CO2 to establish a 3D cell model. 1000X stock solutions of compounds at a 3.16-fold concentration gradient of were prepared using DMSO, diluted 100-fold into a 10X compound stock solution using the medium described above. The 10X compound stock solution was added to each cell on 2nd day after cell seeding at a final concentration of 1X and a DMSO content of 0.1%. DMSO was used as a control in the experiment, and the medium was used as blank. After the addition of the compounds, the cells were incubated for 5 days. 30 μl of CellTiter-Glo work solution was added to each well, mixed well, and incubated for 30 minutes. After standing at room temperature for 30 minutes, 40 μl of the mixed solution was transferred to an opaque 384-well plate with a white clear bottom. Luminescence chemiluminescence value was read by a microplate reader, and the cell proliferation inhibition rate (IR (%)=(RLU control-RLU compound)/(RLU control-RLU blank)×100%) was calculated. The gradiently diluted concentration of the compounds and corresponding cell proliferation inhibition rate were fitted using XLFit four-parameters method, and the IC50 value was calculated. […] The results of some exemplary compounds are shown in Table 2 (“−” represents untested).

Structures are written as SMILES. Like-named read-outs stand apart in the source and are kept apart here.

A word on the IC50: it is the concentration at which inhibition is half-maximal.

Consider `C#Cc1cccc2cccc(-c3nc4c5c(nc(OC[C@@]67CCCN6CCC7=C)nc5c3F)N3C[C@H]5CC[C@H](N5)[C@H]3[C@H](C)O4)c12` [Example Z702, (5S,5aS,6S,9R)-2-(8-ethynylnaphthalen-1-yl)-1-fluoro-5-methyl-12-(((S)-1-methylenetetrahydro-1H-pyrrolizin-7a (5H)-yl)methoxy)-5a,6,7,8,9,10-hexahydro-5H-4-oxa-3,10a, 11,13,14-pentaaza-6,9-methanonaphtho[1,8-ab]heptalene], for which the half-maximal inhibitory concentration (IC50) was determined as 0.0111 µM in assay [1] (Homo sapiens); 0.0268 µM with AGS cells (KRAS G12D) (Homo sapiens, 120 h); 0.0519 µM in assay [2] (Homo sapiens, ASPC1, 120 h).

Regarding `C#Cc1c(F)ccc2cccc(-c3nc4c5c(nc(OCC67CCCN6[C@@H]6C[C@@H]6C7)nc5c3F)N3C[C@H]5CC[C@H](N5)[C@H]3[C@H](C)O4)c12` (stereo partly drawn) [Example Z624, (5S,5aS,6S,9R)-2-(8-ethynyl-7-fluoronaphthalen-1-yl)-1-fluoro-12-(((1aR,6aR)-hexahydrocyclopropa[b]pyrrolizin-5a (3H)-yl)methoxy)-5-methyl-5a,6,7,8,9,10-hexahydro-5H-4-oxa-3,10a, 11, 13, 14-pentaaza-6,9-methanonaphtho[1,8-ab]heptalene], the IC50 in assay [1] (Homo sapiens) was found to be 0.0473 µM; in the assay on AGS cells (KRAS G12D) (Homo sapiens, 120 h), 0.0882 µM; in assay [2] (Homo sapiens, ASPC1, 120 h), 0.194 µM.

For the compound `C#Cc1cccc2cc(N)cc(-c3nc4c5c(nc(OCC67CC(=C)CN6C[C@H](F)C7)nc5c3F)N3C[C@H]5CC[C@H](N5)[C@H]3[C@H](C)O4)c12` (stereo partly drawn) [Example Z699, 5-ethynyl-4-((5S,5aS,6S,9R)-1-fluoro-12-(((2R)-2-fluoro-6-methylenetetrahydro-1H-pyrrolizin-7a (5H)-yl)methoxy)-5-methyl-5a,6,7,8,9,10-hexahydro-5H-4-oxa-3,10a, 11,13,14-pentaaza-6,9-methanonaphtho[1,8-ab]heptalen-2-yl) naphthalen-2-amine], the IC50 worked out at 0.00044 µM in assay [1] (Homo sapiens); 0.00198 µM in the assay with AGS cells (KRAS G12D) (Homo sapiens, 120 h); 0.00237 µM in assay [2] (Homo sapiens, ASPC1, 120 h).

With `C#Cc1cccc2cccc(-c3nc4c5c(nc(OCC67CCCN6CC(=C)C7)nc5c3F)N3C[C@H]5CC[C@H](N5)[C@H]3[C@H](CC)O4)c12` (stereo partly drawn) [Example Z595, (5S,5aS,6S,9R)-5-ethyl-2-(8-ethynylnaphthalen-1-yl)-1-fluoro-12-((2-methylenetetrahydro-1H-pyrrolizin-7a (5H)-yl)methoxy)-5a,6,7,8,9,10-hexahydro-5H-4-oxa-3,10a,11,13,14-pentaaza-6,9-methanonaphtho[1,8-ab]heptalene], the IC50 in assay [1] (Homo sapiens) was 0.119 µM; in the assay on AGS cells (KRAS G12D) (Homo sapiens, 120 h), 0.099 µM; in assay [2] (Homo sapiens, ASPC1, 120 h), 0.157 µM.

`C#Cc1c(F)ccc2cccc(-c3nc4c5c(nc(OCC67CC(O)CN6CCC7=C)nc5c3F)N3C[C@H]5CC[C@H](N5)[C@H]3[C@H](C)O4)c12` (stereo partly drawn) [Example Z674, 7a-((((5S,5aS,6S,9R)-2-(8-ethynyl-7-fluoronaphthalen-1-yl)-1-fluoro-5-methyl-5a,6,7,8,9,10-hexahydro-5H-4-oxa-3,10a, 11, 13, 14-pentaaza-6,9-methanonaphtho[1,8-ab]heptalen-12-yl)oxy)methyl)-7-methylenehexahydro-1H-pyrrolizin-2-ol]: the IC50 in assay [1] (Homo sapiens) was 0.0107 µM; with AGS cells (KRAS G12D) (Homo sapiens, 120 h), 0.108 µM; in assay [2] (Homo sapiens, ASPC1, 120 h), 0.475 µM.

For the compound `C=C1CN2C[C@H](F)CC2(COc2nc3c4c(nc(-c5cccc(Cl)c5C(F)(F)F)c(F)c4n2)O[C@@H](C)[C@@H]2[C@@H]4CC[C@H](CN32)N4)C1` (stereo partly drawn) [Example Z682, (5S,5aS,6S,9R)-2-(3-chloro-2-(trifluoromethyl)phenyl)-1-fluoro-12-(((2R)-2-fluoro-6-methylenetetrahydro-1H-pyrrolizin-7a (5H)-yl)methoxy)-5-methyl-5a,6,7,8,9,10-hexahydro-5H-4-oxa-3,10a, 11,13,14-pentaaza-6,9-methanonaphtho[1,8-ab]heptalene], the IC50 in assay [1] (Homo sapiens) turned out to be 0.082 µM; in the assay on AGS cells (KRAS G12D) (Homo sapiens, 120 h), 0.146 µM; in assay [2] (Homo sapiens, ASPC1, 120 h), 0.237 µM.

On to `C#Cc1c(F)ccc2cccc(-c3nc4c5c(nc(OC[C@@]67CCCN6C[C@H](F)C7)nc5c3F)N3C[C@H]5CC[C@H](N5)[C@H]3[C@H](C)O4)c12` [Example Z632, (5S,5aS,6S,9R)-2-(8-Ethynyl-7-Fluoronaphthalen-1-Yl)-1-Fluoro-12-(((2R,7aS)-2-Fluorotetrahydro-1H-Pyrrolizin-7a (5H)-Yl)Methoxy)-5-Methyl-5a,6,7,8,9,10-Hexahydro-5H-4-Oxa-3,10a,11,13,14-Pentaaza-6,9-Methanonaphtho[1,8-Ab]Heptalene], for which the IC50 was 0.0304 µM in assay [1] (Homo sapiens); 0.0262 µM with AGS cells (KRAS G12D) (Homo sapiens, 120 h); 0.0538 µM in assay [2] (Homo sapiens, ASPC1, 120 h).

With `C#Cc1c(F)ccc2cccc(-c3nc4c5c(nc(OC[C@@]67CC(=C)CN6CC[C@@H]7OC)nc5c3F)N3C[C@H]5CC[C@H](N5)[C@H]3[C@H](C)O4)c12` (single isomer, unassigned) [Example Z696], the half-maximal inhibitory concentration (IC50) in assay [1] is 0.0726 µM; in the assay on AGS cells (KRAS G12D), 0.598 µM; in assay [2], 0.694 µM.

As to `C#Cc1c(F)ccc2cccc(-c3nc4c5c(nc(OC[C@@]67CCCN6CC(=C)C7)nc5c3F)N3C[C@H]5CC[C@H](N5)[C@H]3[C@H](C)O4)c12` [Example Z637, (5S,5aS,6S,9R)-2-(8-ethynyl-7-fluoronaphthalen-1-yl)-1-fluoro-5-methyl-12-(((S)-2-methylenetetrahydro-1H-pyrrolizin-7a (5H)-yl)methoxy)-5a,6,7,8,9,10-hexahydro-5H-4-oxa-3,10a,11,13,14-pentaaza-6,9-methanonaphtho[1,8-ab]heptalene], the IC50 amounted to 0.0488 µM in assay [1] (Homo sapiens); 0.0676 µM in the assay with AGS cells (KRAS G12D) (Homo sapiens, 120 h); 0.112 µM in assay [2] (Homo sapiens, ASPC1, 120 h).

Turning to `C#Cc1c(F)ccc2cccc(-c3nc4c5c(nc(OCC67CCCN6CC(=C)C7)nc5c3F)N3C[C@H]5CC[C@H](N5)[C@H]3[C@H](C)O4)c12` (stereo partly drawn) [Example Z590, (5S,5aS,6S,9R)-2-(8-ethynyl-7-fluoronaphthalen-1-yl)-1-fluoro-5-methyl-12-((2-methylenetetrahydro-1H-pyrrolizin-7a (5H)-yl)methoxy)-5a,6,7,8,9,10-hexahydro-5H-4-oxa-3,10a,11,13,14-pentaaza-6,9-methanonaphtho[1,8-ab]heptalene], the IC50 in assay [1] (Homo sapiens) is 0.00711 µM; in the assay with AGS cells (KRAS G12D) (Homo sapiens, 120 h), 0.0173 µM; in assay [2] (Homo sapiens, ASPC1, 120 h), 0.114 µM.

With `C[C@@H]1Oc2nc(-c3cc(N)cc4ccc(F)c(F)c34)c(F)c3nc(OCC4(CN5CCOCC5)CC4)nc(c23)N2C[C@H]3CC[C@H](N3)[C@@H]12` [Example Z719, 5,6-difluoro-4-((5S,5aS,6S,9R)-1-fluoro-S-methyl-12-((1-(morpholinomethyl)cyclopropyl)methoxy)-5a,6,7,8,9,10-hexahydro-5H-4-oxa-3,10a, 11,13,14-pentaaza-6,9-methanonaphtho[1,8-ab]heptalene-2-yl) naphthalen-2-amine], the IC50 in assay [1] stood at 0.00116 µM; in the assay with AGS cells (KRAS G12D), 0.00103 µM; in assay [2] it was 0.003 µM.

In the case of `C#Cc1cccc2cc(N)cc(-c3nc4c5c(nc(OC[C@@H]6CC(F)(F)CN6C)nc5c3F)N3C[C@H]5CC[C@H](N5)[C@H]3[C@H](C)O4)c12` [Example Z724, 4-((5S,5aS,6S,9R)-12-(((S)-4,4-Difluoro-1-Methylpyrrolidin-2-Yl)Methoxy)-1-Fluoro-5-Methyl-5a,6,7,8,9,10-Hexahydro-5H-4-Oxa-3,10a,11,13,14-Pentaaza-6,9-Methanonaphtho[1,8-Ab]Heptalene-2-Yl)-5-Ethynylnaphthalen-2-Amine], the concentration for half-maximal inhibition (IC50) in assay [1] (Homo sapiens) is 0.0453 µM; in the assay on AGS cells (KRAS G12D) (Homo sapiens, 120 h) it was 0.092 µM; in assay [2] (Homo sapiens, ASPC1, 120 h) it was 0.196 µM.

`C#Cc1c(F)ccc2cccc(-c3nc4c5c(nc(OCC67CC(=C)CN6CC(=C)C7)nc5c3F)N3C[C@H]5CC[C@H](N5)[C@H]3CCO4)c12` [Example Z629]: the IC50 turned out to be 0.05 µM in assay [1] (Homo sapiens); 0.0517 µM with AGS cells (KRAS G12D) (Homo sapiens, 120 h); 0.167 µM in assay [2] (Homo sapiens, ASPC1, 120 h).

The values above are taken from patent publication US20250186456A1, “PYRIMIDINE-FUSED CYCLIC COMPOUND AND PREPARATION METHOD AND USE THEREOF” (Genfleet Therapeutics (Shanghai) Inc., priority 2021, published 2025).
